Laboratory results published in patent publication US20090105305A1, “Therapeutic Agents - 550” (AstraZeneca AB, priority 2006, published 2009).

Biological target: T1, human Fatty Acid Synthase (Homo sapiens, UniProt P49327)
T1 construct: made in house
Experiment: Human FAS enzyme assay (decrease in NADPH fluorescence)
Type: biochemical
Conditions: % inhibition at a concentration of 100 micromolar
Source text: The compounds of the present invention are Fatty Acid Synthase inhibitors. […] Human and Rat FAS Enzyme Assay.
Fatty acid synthase is an enzyme complex that harbours seven enzymatic activities catalysing the reductive synthesis of long chain fatty acids from acetyl CoA and malonyl CoA to palmitate. When acetyl CoA and malonyl CoA are forming palmitate NADPH is consumed forming NADP. Since NADPH is fluorescent but not NADP the reaction can be measured by analysing the decrease in fluorescence.
Compounds were added to a black 384 well plate (Matrix) in a volume of 5 μl consisting of 20% DMSO and 80% Tris buffer pH 7.5, at a top concentration of 1 mM. NADPH, 30 μl of 166.6 μM, formulated in assay buffer (0.1M Tris ph7.5, 0.1 mM EDTA, 1 mM glutathione, 0.05% BSA), was then added to all of the wells of the plate. Fatty acid synthase Human or rat enzyme (0.4 μg, produced in house), dissolved in 20 mM Tris/HCl pH 7.5, 5 mM BOG, 1 mM TCEP, 10% glycerol, 1 mM EDTA, 150 mM NaCl, was then added to the plate in a volume of […]. Enzyme was added to all but the last two columns of the plate, to which, 10 μl of assay buffer was added (0.1M Tris ph7.5, 0.1 mM EDTA, 1 mM glutathione, 0.05% BSA) to provide a no enzyme assay control. Following a 15-minute incubation period, at room temperature, the plates were read on an Envision plate reader using 340 nm excitation and 460 nm emission filters. This served as a time zero background read. Substrates (an equal mix of both malonyl and acetyl CoA) were then added to the plates in a total volume of 5 μl. The concentrations of malonyl and acetyl CoA in the mixture were 500 μM and 150 μM respectively. Both were prepared as 10 mM stock solutions in distilled water and were subsequently diluted to working concentrations in assay buffer. Plates were then incubated for a further 60 minutes, at room temperature, before being read again on the Envision reader using the same parameters as previously used. The data was analysed by subtracting the background time zero data from that generated following the final 60 minute incubate and the percent inhibition compared to the maximum and minimum assay controls was determined. Sigmoid curves were fitted using Origin 7.5 Client software and IC50 values were determined.

T1 sequence (P49327 whole entry): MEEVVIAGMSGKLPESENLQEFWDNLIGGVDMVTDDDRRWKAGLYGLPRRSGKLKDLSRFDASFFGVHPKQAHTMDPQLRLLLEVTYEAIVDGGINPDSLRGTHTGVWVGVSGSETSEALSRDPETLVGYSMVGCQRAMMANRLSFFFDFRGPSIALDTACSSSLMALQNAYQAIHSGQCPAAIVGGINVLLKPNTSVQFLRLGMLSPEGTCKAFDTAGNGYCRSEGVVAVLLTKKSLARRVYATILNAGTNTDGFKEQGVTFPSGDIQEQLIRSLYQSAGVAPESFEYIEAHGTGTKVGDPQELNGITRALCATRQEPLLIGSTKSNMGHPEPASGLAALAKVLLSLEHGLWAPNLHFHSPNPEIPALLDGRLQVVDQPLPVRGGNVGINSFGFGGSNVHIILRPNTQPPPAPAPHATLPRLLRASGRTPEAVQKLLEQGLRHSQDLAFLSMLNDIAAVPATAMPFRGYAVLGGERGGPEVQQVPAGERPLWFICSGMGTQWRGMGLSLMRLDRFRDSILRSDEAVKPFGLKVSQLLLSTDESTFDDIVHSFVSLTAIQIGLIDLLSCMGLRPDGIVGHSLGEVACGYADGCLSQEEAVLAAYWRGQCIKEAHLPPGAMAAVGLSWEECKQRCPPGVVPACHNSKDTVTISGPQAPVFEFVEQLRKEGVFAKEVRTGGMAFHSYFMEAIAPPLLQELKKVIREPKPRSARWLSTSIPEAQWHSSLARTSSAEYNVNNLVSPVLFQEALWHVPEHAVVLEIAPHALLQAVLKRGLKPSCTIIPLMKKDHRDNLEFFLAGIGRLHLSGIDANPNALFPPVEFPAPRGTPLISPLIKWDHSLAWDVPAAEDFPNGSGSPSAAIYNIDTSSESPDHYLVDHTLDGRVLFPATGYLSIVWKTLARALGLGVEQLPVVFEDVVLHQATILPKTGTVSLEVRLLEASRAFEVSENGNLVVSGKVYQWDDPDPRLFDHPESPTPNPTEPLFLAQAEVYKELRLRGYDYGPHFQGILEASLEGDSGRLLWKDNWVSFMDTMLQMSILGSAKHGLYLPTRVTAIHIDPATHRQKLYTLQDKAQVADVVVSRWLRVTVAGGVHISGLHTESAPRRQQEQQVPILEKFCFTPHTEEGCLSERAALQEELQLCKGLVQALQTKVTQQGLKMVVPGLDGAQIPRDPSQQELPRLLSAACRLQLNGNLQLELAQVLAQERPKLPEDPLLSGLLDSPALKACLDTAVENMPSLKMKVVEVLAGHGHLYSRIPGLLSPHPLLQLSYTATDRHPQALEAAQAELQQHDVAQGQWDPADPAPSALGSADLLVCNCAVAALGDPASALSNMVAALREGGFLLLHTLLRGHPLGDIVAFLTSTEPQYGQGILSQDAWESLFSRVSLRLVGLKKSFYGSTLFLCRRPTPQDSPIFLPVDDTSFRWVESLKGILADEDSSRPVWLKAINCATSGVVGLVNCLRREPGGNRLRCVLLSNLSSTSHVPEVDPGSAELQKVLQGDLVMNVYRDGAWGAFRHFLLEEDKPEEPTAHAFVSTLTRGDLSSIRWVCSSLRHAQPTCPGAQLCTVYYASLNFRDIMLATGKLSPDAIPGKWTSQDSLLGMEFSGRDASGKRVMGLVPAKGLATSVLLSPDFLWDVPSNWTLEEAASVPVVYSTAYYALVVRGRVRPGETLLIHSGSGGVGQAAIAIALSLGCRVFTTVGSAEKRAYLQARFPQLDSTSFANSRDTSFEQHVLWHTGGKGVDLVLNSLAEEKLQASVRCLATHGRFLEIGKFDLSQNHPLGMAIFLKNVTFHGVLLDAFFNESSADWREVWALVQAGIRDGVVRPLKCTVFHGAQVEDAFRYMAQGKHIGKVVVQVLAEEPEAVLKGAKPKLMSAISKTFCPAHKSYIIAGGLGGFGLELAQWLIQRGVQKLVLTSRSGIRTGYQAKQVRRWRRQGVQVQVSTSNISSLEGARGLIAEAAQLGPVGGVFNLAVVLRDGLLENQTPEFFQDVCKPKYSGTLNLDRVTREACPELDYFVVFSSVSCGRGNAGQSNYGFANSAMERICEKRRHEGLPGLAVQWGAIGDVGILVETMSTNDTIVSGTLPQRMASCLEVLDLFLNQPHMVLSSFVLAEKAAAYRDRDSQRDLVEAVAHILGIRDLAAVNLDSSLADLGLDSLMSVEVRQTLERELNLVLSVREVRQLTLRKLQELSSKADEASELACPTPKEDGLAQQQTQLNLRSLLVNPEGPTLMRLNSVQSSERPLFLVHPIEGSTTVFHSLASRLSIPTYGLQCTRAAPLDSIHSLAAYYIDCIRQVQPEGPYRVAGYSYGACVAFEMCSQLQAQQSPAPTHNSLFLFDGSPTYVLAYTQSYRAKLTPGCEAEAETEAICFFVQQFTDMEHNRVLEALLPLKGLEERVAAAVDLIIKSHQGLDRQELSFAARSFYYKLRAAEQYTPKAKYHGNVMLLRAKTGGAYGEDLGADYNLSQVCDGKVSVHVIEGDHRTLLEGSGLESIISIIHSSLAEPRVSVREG

| inhibition at 100 µM [%] | Structure (SMILES) |
| --- | --- |
| 83 | Cc1ccc(NS(=O)(=O)c2ccc(Cl)s2)cc1C(=O)N1CCC(c2ccc(C#N)cc2)CC1 [Example 45, 5-chloro-N-[3-[4-(4-cyanophenyl)piperidine-1-carbonyl]-4-methyl-phenyl]thiophene-2-sulfonamide] |
| 85 | Cc1ccc(NS(=O)(=O)c2cccc(C#N)c2)cc1C(=O)N1CCC(c2ccc(C#N)cc2)CC1 [Example 47, 3-cyano-N-[3-[4-(4-cyanophenyl)piperidine-1-carbonyl]-4-methyl-phenyl]benzenesulfonamide] |
| 83 | Cc1ccc(NS(=O)(=O)c2ccc(C#N)cc2)cc1C(=O)N1CCC(c2ccc(C#N)cc2)CC1 [Example 49, 4-cyano-N-[3-[4-(4-cyanophenyl)piperidine-1-carbonyl]-4-methyl-phenyl]benzenesulfonamide] |
| 91 | Cc1ccc(NS(=O)(=O)Cc2cccc(F)c2)cc1C(=O)N1CCC(c2ccc(C#N)cc2)CC1 [Example 52, N-[3-[4-(4-cyanophenyl)piperidine-1-carbonyl]-4-methyl-phenyl]-1-(3-fluorophenyl)methanesulfonamide] |
| 84 | Cc1ccc(NS(=O)(=O)Cc2ccc(S(C)(=O)=O)cc2)cc1C(=O)N1CCC(c2ccc(C#N)cc2)CC1 [Example 54, N-[3-[4-(4-cyanophenyl)piperidine-1-carbonyl]-4-methyl-phenyl]-1-(4-methylsulfonylphenyl)methanesulfonamide] |
| 89 | Cc1ccc(NS(=O)(=O)Cc2ccc(F)cc2F)cc1C(=O)N1CCC(c2ccc(C#N)cc2)CC1 [Example 56, N-[3-[4-(4-cyanophenyl)piperidine-1-carbonyl]-4-methyl-phenyl]-1-(2,4-difluorophenyl)methanesulfonamide] |
| 92 | Cc1ccc(NS(=O)(=O)CCc2ccccc2)cc1C(=O)N1CCC(c2ccc(C#N)cc2)CC1 [Example 58, N-[3-[4-(4-cyanophenyl)piperidine-1-carbonyl]-4-methyl-phenyl]-2-phenyl-ethanesulfonamide] |
| 83 | Cc1ccc(C(=O)N2CCC(c3ccc(C#N)cc3)CC2)cc1NS(=O)(=O)CC(C)C [Example 64, N-[5-[4-(4-cyanophenyl)piperidine-1-carbonyl]-2-methyl-phenyl]-2-methyl-propane-1-sulfonamide] |
| 92 | Cc1ccc(C(=O)N2CCC(c3ccc(C#N)cc3)CC2)cc1NS(=O)(=O)CCCN1CCOCC1 [Example 67, N-[5-[4-(4-cyanophenyl)piperidine-1-carbonyl]-2-methyl-phenyl]-3-morpholin-4-yl-propane-1-sulfonamide] |
| 87 | Cc1ccc(C(=O)N2CCC(O)(c3ccc(C#N)cc3)CC2)cc1NS(=O)(=O)Cc1ccccc1 [Example 70, N-[5-[4-(4-cyanophenyl)-4-hydroxy-piperidine-1-carbonyl]-2-methyl-phenyl]-1-phenyl-methanesulfonamide] |
| 93 | Cc1ccc(C(=O)N2CCC(c3ccc(C#N)cc3)CC2)cc1NS(=O)(=O)CCN [Example 72, 2-amino-N-[5-[4-(4-cyanophenyl)piperidine-1-carbonyl]-2-methyl-phenyl]ethanesulfonamide] |
| 94 | Cc1ccc(C(=O)N2CCC(c3ccc(C#N)cc3)CC2)cc1NS(=O)(=O)CCCNC(C)C [Example 73, N-[5-[4-(4-cyanophenyl)piperidine-1-carbonyl]-2-methyl-phenyl]-3-(propan-2-ylamino)propane-1-sulfonamide] |
| 95 | Cc1ccc(C(=O)N2CCC(c3ccc(C#N)cc3)CC2)cc1NS(=O)(=O)CCCN(C)C [Example 74, N-[5-[4-(4-cyanophenyl)piperidine-1-carbonyl]-2-methyl-phenyl]-3-dimethylamino-propane-1-sulfonamide] |

Continued, compound first:

| Structure (SMILES) | inhibition at 100 µM [%] |
| --- | --- |
| Cc1ccc(NS(=O)(=O)c2ccccc2C#N)cc1C(=O)N1CCC(c2ccc(C#N)cc2)CC1 [Example 46, 2-cyano-N-[3-[4-(4-cyanophenyl)piperidine-1-carbonyl]-4-methyl-phenyl]benzenesulfonamide] | 79 |
| CC(=O)Nc1ccc(S(=O)(=O)Nc2ccc(C)c(C(=O)N3CCC(c4ccc(C#N)cc4)CC3)c2)cc1 [Example 48, N-[4-[[3-[4-(4-cyanophenyl)piperidine-1-carbonyl]-4-methyl-phenyl]sulfamoyl]phenyl]acetamide] | 84 |
| COc1ccccc1S(=O)(=O)Nc1ccc(C)c(C(=O)N2CCC(c3ccc(C#N)cc3)CC2)c1 [Example 50, N-[3-[4-(4-cyanophenyl)piperidine-1-carbonyl]-4-methyl-phenyl]-2-methoxy-benzenesulfonamide] | 87 |
| Cc1ccc(NS(=O)(=O)Cc2ccccc2F)cc1C(=O)N1CCC(c2ccc(C#N)cc2)CC1 [Example 51, N-[3-[4-(4-cyanophenyl)piperidine-1-carbonyl]-4-methyl-phenyl]-1-(2-fluorophenyl)methanesulfonamide] | 94 |
| Cc1ccc(NS(=O)(=O)c2ccc3c(c2)CC(=O)N3)cc1C(=O)N1CCC(c2ccc(C#N)cc2)CC1 [Example 53, N-[3-[4-(4-cyanophenyl)piperidine-1-carbonyl]-4-methyl-phenyl]-2-oxo-1,3-dihydroindole-5-sulfonamide] | 84 |
| Cc1ccc(NS(=O)(=O)CC(F)(F)F)cc1C(=O)N1CCC(c2ccc(C#N)cc2)CC1 [Example 55, N-[3-[4-(4-cyanophenyl)piperidine-1-carbonyl]-4-methyl-phenyl]-2,2,2-trifluoro-ethanesulfonamide] | 79 |
| Cc1ccc(NS(=O)(=O)CC(C)C)cc1C(=O)N1CCC(c2ccc(C#N)cc2)CC1 [Example 57, N-[3-[4-(4-cyanophenyl)piperidine-1-carbonyl]-4-methyl-phenyl]-2-methyl-propane-1-sulfonamide] | 94 |
| CCCC(C)S(=O)(=O)Nc1ccc(C)c(C(=O)N2CCC(c3ccc(C#N)cc3)CC2)c1 (stereo not drawn) [Example 59, N-[3-[4-(4-cyanophenyl)piperidine-1-carbonyl]-4-methyl-phenyl]pentane-2-sulfonamide] | 89 |
| Cc1ccc(C(=O)N2CCC(c3ccc(C#N)cc3)CC2)cc1NS(=O)(=O)CC(F)(F)F [Example 60, N-[5-[4-(4-cyanophenyl)piperidine-1-carbonyl]-2-methyl-phenyl]-2,2,2-trifluoro-ethanesulfonamide] | 83 |
| Cc1ccc(C(=O)N2CCC(c3ccc(C#N)cc3)CC2)cc1NS(=O)(=O)Cc1ccc(F)cc1F [Example 61, N-[5-[4-(4-cyanophenyl)piperidine-1-carbonyl]-2-methyl-phenyl]-1-(2,4-difluorophenyl)methanesulfonamide] | 93 |
| Cc1ccc(C(=O)N2CCC(c3ccc(C#N)cc3)CC2)cc1NS(=O)(=O)Cc1ccc(S(C)(=O)=O)cc1 [Example 62, N-[5-[4-(4-cyanophenyl)piperidine-1-carbonyl]-2-methyl-phenyl]-1-(4-methylsulfonylphenyl)methanesulfonamide] | 82 |
| CCCC(C)S(=O)(=O)Nc1cc(C(=O)N2CCC(c3ccc(C#N)cc3)CC2)ccc1C (stereo not drawn) [Example 63, N-[5-[4-(4-cyanophenyl)piperidine-1-carbonyl]-2-methyl-phenyl]pentane-2-sulfonamide] | 85 |
| N#Cc1ccc(C2CCN(C(=O)c3cccc(NS(=O)(=O)Cc4ccccc4)c3)CC2)cc1 [Example 66, N-[3-[4-(4-cyanophenyl)piperidine-1-carbonyl]phenyl]-1-phenyl-methanesulfonamide] | 80 |
| Cc1ccc(C(=O)N2CCC(c3ccc(S(C)(=O)=O)cc3)CC2)cc1NS(C)(=O)=O [Example 68, N-[2-methyl-5-[4-(4-methylsulfonylphenyl)piperidine-1-carbonyl]phenyl]methanesulfonamide] | 74 |
| Cc1ccc(NS(=O)(=O)C2CCS(=O)(=O)C2)cc1C(=O)N1CCC(c2ccc(C#N)cc2)CC1 (stereo not drawn) [Example 69, N-[3-[4-(4-cyanophenyl)piperidine-1-carbonyl]-4-methyl-phenyl]-1,1-dioxo-thiolane-3-sulfonamide] | 82 |
| Cc1ccc(C(=O)N2CCC(c3ccc(C#N)cc3)CC2)cc1NS(=O)(=O)CCN1C(=O)c2ccccc2C1=O [Example 71, N-[5-[4-(4-cyanophenyl)piperidine-1-carbonyl]-2-methyl-phenyl]-2-(1,3-dioxoisoindol-2-yl)ethanesulfonamide] | 100 |
| CNCCCS(=O)(=O)Nc1cc(C(=O)N2CCC(c3ccc(C#N)cc3)CC2)ccc1C [Example 75, N-[5-[4-(4-cyanophenyl)piperidine-1-carbonyl]-2-methyl-phenyl]-3-methylamino-propane-1-sulfonamide] | 93 |
